Data as given in ChEMBL document CHEMBL1154822, “Synthesis and antiproliferative activity of 7-azaindirubin-3'-oxime, a 7-aza isostere of the natural indirubin pharmacophore” (J Nat Prod, 2009).

What was measured:
[1] = test system: PC-3; test: Cytotoxicity against human PC3 cells assessed as cell growth at 10 uM after 48 hrs by MTT assay; assay type: functional; details: PC-3, 48 h, read-out: Activity
[2] = test system: DU-145; test: Cytotoxicity against human DU145 cells assessed as cell growth at 10 uM after 48 hrs by MTT assay; assay type: functional; details: DU-145, 48 h, read-out: Activity
[3] = test system: SNB-75; test: Cytotoxicity against human SNB75 cells assessed as cell growth at 10 uM after 48 hrs by MTT assay; assay type: functional; details: SNB-75, 48 h, read-out: Activity
[4] = test system: MOLT-4; test: Cytotoxicity against human MOLT4 cells assessed as cell growth at 10 uM after 48 hrs by MTT assay; assay type: functional; details: MOLT-4, 48 h, read-out: Activity
[5] = test system: SF-268; test: Cytotoxicity against human SF268 cells assessed as cell growth at 10 uM after 48 hrs by MTT assay; assay type: functional; details: SF-268, 48 h, read-out: Activity
[6] = test system: UO-31; test: Cytotoxicity against human UO31 cells assessed as cell growth at 10 uM after 48 hrs by MTT assay; assay type: functional; details: UO-31, 48 h, read-out: Activity
[7] = test system: KM12; test: Cytotoxicity against human KM12 cells assessed as cell growth at 10 uM after 48 hrs by MTT assay; assay type: functional; details: KM12, 48 h, read-out: Activity
[8] = biological target: Cyclin-dependent kinase 1/cyclin B1 (Homo sapiens) (UniProt P06493+P14635); test: Inhibition of human CDK1/Cyclin B assessed as residual enzyme activity at 0.3 uM after 40 mins by scintillation counting; assay type: protein-complex assay
Sequence of Cyclin-dependent kinase 1/cyclin B1 (Homo sapiens) (P06493 whole entry, looked up): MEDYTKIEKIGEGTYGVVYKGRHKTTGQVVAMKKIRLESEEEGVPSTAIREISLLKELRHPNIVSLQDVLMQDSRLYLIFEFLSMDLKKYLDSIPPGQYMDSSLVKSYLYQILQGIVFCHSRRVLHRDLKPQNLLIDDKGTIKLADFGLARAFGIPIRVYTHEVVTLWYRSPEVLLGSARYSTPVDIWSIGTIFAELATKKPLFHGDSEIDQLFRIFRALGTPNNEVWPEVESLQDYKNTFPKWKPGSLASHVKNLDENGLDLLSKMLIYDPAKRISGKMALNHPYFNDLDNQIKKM
Sequence of Cyclin-dependent kinase 1/cyclin B1 (Homo sapiens) (P14635 whole entry, looked up): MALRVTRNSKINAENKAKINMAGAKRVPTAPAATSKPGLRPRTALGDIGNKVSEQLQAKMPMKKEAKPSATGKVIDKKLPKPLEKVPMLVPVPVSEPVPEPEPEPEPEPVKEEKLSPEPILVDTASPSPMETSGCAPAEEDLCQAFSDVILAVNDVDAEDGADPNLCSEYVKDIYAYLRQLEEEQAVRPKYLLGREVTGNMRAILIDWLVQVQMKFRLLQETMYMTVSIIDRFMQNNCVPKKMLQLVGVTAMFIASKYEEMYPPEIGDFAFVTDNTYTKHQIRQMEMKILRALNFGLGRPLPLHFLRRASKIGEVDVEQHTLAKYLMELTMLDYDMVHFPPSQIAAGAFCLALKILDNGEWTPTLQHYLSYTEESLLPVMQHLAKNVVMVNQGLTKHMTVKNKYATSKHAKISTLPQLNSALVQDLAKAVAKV

[9] = test system: HOP-62; test: Cytotoxicity against human HOP62 cells assessed as cell growth at 10 uM after 48 hrs by MTT assay; assay type: functional; details: HOP-62, 48 h, read-out: Activity
[10] = test system: SK-OV-3; test: Cytotoxicity against human SKOV3 cells assessed as cell growth at 10 uM after 48 hrs by MTT assay; assay type: functional; details: SK-OV-3, 48 h, read-out: Activity
[11] = biological target: Glycogen synthase kinase-3 beta (Homo sapiens) (UniProt P49841); test: Inhibition of human GSK3-beta assessed as residual enzyme activity at 0.01 uM after 40 mins by scintillation counting
Sequence of Glycogen synthase kinase-3 beta (Homo sapiens) (P49841 whole entry, looked up): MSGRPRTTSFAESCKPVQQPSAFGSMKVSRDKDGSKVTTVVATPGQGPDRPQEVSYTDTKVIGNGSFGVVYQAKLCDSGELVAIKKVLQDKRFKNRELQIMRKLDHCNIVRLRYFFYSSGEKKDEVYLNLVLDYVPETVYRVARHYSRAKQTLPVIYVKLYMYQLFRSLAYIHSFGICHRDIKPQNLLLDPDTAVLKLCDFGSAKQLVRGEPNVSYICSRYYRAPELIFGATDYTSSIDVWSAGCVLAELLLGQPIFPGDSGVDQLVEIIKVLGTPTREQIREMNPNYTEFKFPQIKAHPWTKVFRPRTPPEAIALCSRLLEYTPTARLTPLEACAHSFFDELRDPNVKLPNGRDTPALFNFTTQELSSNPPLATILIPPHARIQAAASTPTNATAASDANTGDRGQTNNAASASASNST

[12] = test system: TK-10; test: Cytotoxicity against human TK10 cells assessed as cell growth at 10 uM after 48 hrs by MTT assay; assay type: functional; details: TK-10, 48 h, read-out: Activity
[13] = test system: LOX IMVI; test: Cytotoxicity against human LOXIMVI cells assessed as cell growth at 10 uM after 48 hrs by MTT assay; assay type: functional; details: read-out: Activity
[14] = test system: RPMI-8226; test: Cytotoxicity against human RPMI8226 cells assessed as cell growth at 10 uM after 48 hrs by MTT assay; assay type: functional; details: RPMI-8226, 48 h, read-out: Activity
[15] = test system: OVCAR-4; test: Cytotoxicity against human OVCAR4 cells assessed as cell growth at 10 uM after 48 hrs by MTT assay; assay type: functional; details: OVCAR-4, 48 h, read-out: Activity
[16] = test system: EKVX; test: Cytotoxicity against human EKVX cells assessed as cell growth at 10 uM after 48 hrs by MTT assay; assay type: functional; details: read-out: Activity
[17] = test system: SK-MEL-28; test: Cytotoxicity against human SK-MEL-28 cells assessed as cell growth at 10 uM after 48 hrs by MTT assay; assay type: functional; details: SK-MEL-28, 48 h, read-out: Activity
[18] = biological target: Glycogen synthase kinase-3 beta (Homo sapiens) (UniProt P49841); test: Inhibition of human GSK3-beta assessed as residual enzyme activity at 0.3 uM after 40 mins by scintillation counting
[19] = test system: HT-29; test: Cytotoxicity against human HT-29 cells assessed as cell growth at 10 uM after 48 hrs by MTT assay; assay type: functional; details: HT-29, 48 h, read-out: Activity
[20] = test system: SNB-19; test: Cytotoxicity against human SNB19 cells assessed as cell growth at 10 uM after 48 hrs by MTT assay; assay type: functional; details: SNB-19, 48 h, read-out: Activity
[21] = test system: ACHN; test: Cytotoxicity against human ACHN cells assessed as cell growth at 10 uM after 48 hrs by MTT assay; assay type: functional; details: read-out: Activity
[22] = test system: NCI-H322M; test: Cytotoxicity against human NCI-H322M cells assessed as cell growth at 10 uM after 48 hrs by MTT assay; assay type: functional; details: read-out: Activity
[23] = test system: M14; test: Cytotoxicity against human M14 cells assessed as cell growth at 10 uM after 48 hrs by MTT assay; assay type: functional; details: M14, 48 h, read-out: Activity
[24] = test system: MDA-MB-231; test: Cytotoxicity against human MDA-MB-231 cells assessed as cell growth at 10 uM after 48 hrs by MTT assay; assay type: functional; details: MDA-MB-231, 48 h, read-out: Activity
[25] = biological target: T1, Cyclin-dependent kinase 2/cyclin A (Homo sapiens) (UniProt P24941+P20248+P78396); test: Inhibition of human CDK2/Cyclin A assessed as residual enzyme activity at 0.3 uM after 40 mins by scintillation counting; assay type: protein-complex assay
[26] = test system: OVCAR-5; test: Cytotoxicity against human OVCAR5 cells assessed as cell growth at 10 uM after 48 hrs by MTT assay; assay type: functional; details: OVCAR-5, 48 h, read-out: Activity
[27] = biological target: T1, Cyclin-dependent kinase 2/cyclin A (Homo sapiens); test: Inhibition of human CDK2/Cyclin A assessed as residual enzyme activity at 3 uM after 40 mins by scintillation counting; assay type: protein-complex assay
[28] = test system: OVCAR-3; test: Cytotoxicity against human OVCAR-3 cells assessed as cell growth at 10 uM after 48 hrs by MTT assay; assay type: functional; details: OVCAR-3, 48 h, read-out: Activity
[29] = biological target: Cyclin-dependent kinase 5/CDK5 activator 1 (Homo sapiens) (UniProt Q00535+Q15078); test: Inhibition of human CDK5/p35 assessed as residual enzyme activity at 0.3 uM after 40 mins by scintillation counting; assay type: protein-complex assay
[30] = test system: HCT-15; test: Cytotoxicity against human HCT15 cells assessed as cell growth at 10 uM after 48 hrs by MTT assay; assay type: functional; details: HCT-15, 48 h, read-out: Activity
[31] = test system: SF-295; test: Cytotoxicity against human SF295 cells assessed as cell growth at 10 uM after 48 hrs by MTT assay; assay type: functional; details: SF-295, 48 h, read-out: Activity
[32] = test system: SR; test: Cytotoxicity against human SR cells assessed as cell growth at 10 uM after 48 hrs by MTT assay; assay type: functional; details: read-out: Activity
[33] = test system: MDA-MB-468; test: Cytotoxicity against human MDA-MB-468 cells assessed as cell growth at 10 uM after 48 hrs by MTT assay; assay type: functional; details: MDA-MB-468, 48 h, read-out: Activity
[34] = test system: UACC-62; test: Cytotoxicity against human UACC62 cells assessed as cell growth at 10 uM after 48 hrs by MTT assay; assay type: functional; details: UACC-62, 48 h, read-out: Activity
[35] = test system: UACC-257; test: Cytotoxicity against human UACC257 cells assessed as cell growth at 10 uM after 48 hrs by MTT assay; assay type: functional; details: UACC-257, 48 h, read-out: Activity
[36] = test system: COLO 205; test: Cytotoxicity against human COLO205 cells assessed as cell growth at 10 uM after 48 hrs by MTT assay; assay type: functional; details: COLO 205, 48 h, read-out: Activity
[37] = test system: SK-MEL-2; test: Cytotoxicity against human SK-MEL-2 cells assessed as cell growth at 10 uM after 48 hrs by MTT assay; assay type: functional; details: SK-MEL-2, 48 h, read-out: Activity

Compound	growth at 10 µM [1] [%]	growth at 10 µM [2] [%]	growth at 10 µM [3] [%]	growth at 10 µM [4] [%]	growth at 10 µM [5] [%]	growth at 10 µM [6] [%]	growth at 10 µM [7] [%]	Activity [8] [%]	growth at 10 µM [9] [%]	growth at 10 µM [10] [%]	Activity [11] [%]	growth at 10 µM [12] [%]	growth at 10 µM [13] [%]	growth at 10 µM [14] [%]	growth at 10 µM [15] [%]	growth at 10 µM [16] [%]	growth at 10 µM [17] [%]	Activity [18] [%]	growth at 10 µM [19] [%]	growth at 10 µM [20] [%]	other results
O=C1Nc2ncccc2/C1=C1/Nc2ccccc2/C1=N\O	67.7	82.2	31.2	40.8	86.2	10.6	15	105	45.9	6.5	88	40.3	44.5	69.5	86.7	35.5	75.3	64	102	96.5	growth at 10 µM [21]: 22.6%; growth at 10 µM [22]: 30.7%; growth at 10 µM [23]: 56.4%; growth at 10 µM [24]: 78.6%; Activity [25]: 100%; growth at 10 µM [26]: 87.7%; Activity [27]: 76%; growth at 10 µM [28]: 69.3%; Activity [29]: 65%; growth at 10 µM [30]: 33.9%; growth at 10 µM [31]: 94.9%; growth at 10 µM [32]: 32.8%; growth at 10 µM [33]: 28.4%; growth at 10 µM [34]: 56.7%; growth at 10 µM [35]: 92.6%; growth at 10 µM [36]: 106%; growth at 10 µM [37]: 14.7%
CN1C(=O)/C(=C2/C(=O)N(C)c3ncccc32)c2cccnc21	100	119	75.5	127	103	88.3	110	88	91.1	111	94	94.4	101	105	99.8	98.4	106	105	99.5	99.4	growth at 10 µM [21]: 94.6%; growth at 10 µM [22]: 96.5%; growth at 10 µM [23]: 92.7%; growth at 10 µM [24]: 117%; Activity [25]: 114%; growth at 10 µM [26]: 86.7%; Activity [27]: 109%; growth at 10 µM [28]: 132%; Activity [29]: 101%; growth at 10 µM [30]: 96%; growth at 10 µM [31]: 98.9%; growth at 10 µM [32]: 124%; growth at 10 µM [33]: 95.5%; growth at 10 µM [34]: 103%; growth at 10 µM [35]: 102%; growth at 10 µM [36]: 117%; growth at 10 µM [37]: 83.5%
O=C1Nc2ncccc2/C1=C1/Nc2ccccc2C1=O	73	81.2	68.1	85.3	84.4	46.2	89.5	88	68.8	89.5	96	56.4	76.3	75.4	80.4	30.6	123	93	93.8	96.4	growth at 10 µM [21]: 51.5%; growth at 10 µM [22]: 79.7%; growth at 10 µM [23]: 93.8%; growth at 10 µM [24]: 78.3%; Activity [25]: 99%; growth at 10 µM [26]: 77.7%; Activity [27]: 64%; growth at 10 µM [28]: 75.8%; Activity [29]: 82%; growth at 10 µM [30]: 77.9%; growth at 10 µM [31]: 102%; growth at 10 µM [32]: 82.5%; growth at 10 µM [33]: 42.8%; growth at 10 µM [34]: 79.6%; growth at 10 µM [35]: 96.5%; growth at 10 µM [36]: 82.8%; growth at 10 µM [37]: 43.4%
